# Measurements taken from publication PMC10574143, “Exploring the Solubility Limits of Edaravone in Neat Solvents and Binary Mixtures: Experimental and Machine Learning Study” (Molecules, 2023).
# Assay: shake-flask solubility measurement, spectrophotometric at 243 nm
# Format: physicochemical
# Protocol: To assess the solubility of EDA in various solvents, excess amounts of EDA were added to test tubes containing either a specific solvent or a binary mixture containing the organic solvent and water in different molar proportions. The saturated solutions were then placed in an Orbital Shaker Incubator ES-20/60 from Biosan (Riga, Latvia) and incubated at various temperatures for 24 h. Four temperature points, ranging from 25 °C to 40 °C with 5 °C intervals, were used for the incubation. The incubator temperature was precisely adjusted to within 0.1 degrees, with a variance of 0.5 degrees during the 24 h cycle. The samples were simultaneously mixed at 60 rev/min. Next, the samples were filtered using syringes equipped with PTFE filters with a pore size of 0.22 µm. To prevent precipitation due to temperature differences between the solutions and instruments, all test tubes, pipette tips, syringes, and filters were preheated. They were placed in the same incubator as the samples and heated to the same temperature before handling. This step was particularly crucial when dealing with elevated temperatures, as the temperature difference could be substantial. After filtration, small quantities of the obtained filtrate were diluted in test tubes containing methanol and measured spectrophotometrically. The density of each solution was measured by weighing a 1 mL volume in 10 mL volumetric flasks using an Eppendorf Reference 2 pipette (Hamburg, Germany) with a systematic error of 6 μL. The RADWAG AS 110 R2.PLUS analytical balance (Radom, Poland) with a precision of 0.1 mg was also used for this purpose. Solubility determination was conducted using the A360 spectrophotometer from AOE Instruments (Shanghai, China). Spectra were recorded in the wavelength range of 190 nm to 400 nm with a resolution of 1 nm. Methanol was used for both diluting the samples and the initial calibration of the spectrophotometer. The analytical wavelength was set at 243 nm, and the absorbance at this wavelength was used to determine the EDA concentration in the samples and subsequently calculate its mole fractions. To ensure accuracy, three separate measurements were performed, and the resulting values were averaged. The calibration curve for EDA was prepared by diluting an initial stock solution and measuring the resulting solutions’ spectrophotometric properties at decreased concentrations. The molar concentrations of the measured solutions ranged from 0.0023 to 0.023 mg/mL. The relationship between the absorbance values at 243 nm and the solution concentration was described by a linear equation A = 85.603 × C − 0.0179, with high linearity denoted by the determination coefficient R^2 equal to 0.9993.
smiles,measurement,setting,value
"CC1=NN(c2ccccc2)C(=O)C1 [Edaravone, 5-methyl-2-phenyl-4H-pyrazol-3-one]",solubility at x2* = 0.9 versus pure solvent,"1,2-propanediol (PG)-water, 25 °C",higher solubility compared to pure solvents
same,solubility at x2* = 0.9 versus pure solvent,"1,3-butanediol (BG)-water, 25 °C",higher solubility compared to pure solvents
same,Edaravone solubility (xEDA),"BG-water, x2*=0.0 (water), 25 °C","0.02 (<±0.01) xEDA, ×102"
same,Edaravone solubility (xEDA),"BG-water, x2*=0.1, 25 °C","0.12 (±0.02) xEDA, ×102"
same,Edaravone solubility (xEDA),"BG-water, x2*=0.2, 25 °C","0.29 (±0.04) xEDA, ×102"
same,Edaravone solubility (xEDA),"BG-water, x2*=0.3, 25 °C","0.53 (±0.03) xEDA, ×102"
same,Edaravone solubility (xEDA),"BG-water, x2*=0.4, 25 °C","0.83 (±0.04) xEDA, ×102"
same,Edaravone solubility (xEDA),"BG-water, x2*=0.5, 25 °C","1.07 (±0.05) xEDA, ×102"
same,Edaravone solubility (xEDA),"BG-water, x2*=0.6, 25 °C","1.27 (±0.03) xEDA, ×102"
same,Edaravone solubility (xEDA),"BG-water, x2*=0.7, 25 °C","1.42 (±0.05) xEDA, ×102"
same,Edaravone solubility (xEDA),"BG-water, x2*=0.8, 25 °C","1.50 (±0.03) xEDA, ×102"
same,Edaravone solubility (xEDA),"BG-water, x2*=0.9, 25 °C","1.51 (±0.04) xEDA, ×102"
same,Edaravone solubility (xEDA),"DG-water, x2*=0.0 (water), 25 °C","0.02 (<±0.01) xEDA, ×102"
same,Edaravone solubility (xEDA),"DG-water, x2*=0.1, 25 °C","0.09 (±0.01) xEDA, ×102"
same,Edaravone solubility (xEDA),"DG-water, x2*=0.2, 25 °C","0.25 (±0.01) xEDA, ×102"
same,Edaravone solubility (xEDA),"DG-water, x2*=0.3, 25 °C","0.48 (±0.04) xEDA, ×102"
same,Edaravone solubility (xEDA),"DG-water, x2*=0.4, 25 °C","0.74 (±0.03) xEDA, ×102"
same,Edaravone solubility (xEDA),"DG-water, x2*=0.5, 25 °C","1.09 (±0.01) xEDA, ×102"
same,Edaravone solubility (xEDA),"DG-water, x2*=0.6, 25 °C","1.39 (±0.02) xEDA, ×102"
same,Edaravone solubility (xEDA),"DG-water, x2*=0.7, 25 °C","1.65 (±0.05) xEDA, ×102"
same,Edaravone solubility (xEDA),"DG-water, x2*=0.8, 25 °C","1.87 (±0.04) xEDA, ×102"
same,Edaravone solubility (xEDA),"DG-water, x2*=0.9, 25 °C","1.98 (±0.02) xEDA, ×102"
same,Edaravone solubility (xEDA),"PG-water, x2*=0.0 (water), 25 °C","0.02 (<±0.01) xEDA, ×102"
same,Edaravone solubility (xEDA),"PG-water, x2*=0.1, 25 °C","0.06 (±0.01) xEDA, ×102"
same,Edaravone solubility (xEDA),"PG-water, x2*=0.2, 25 °C","0.15 (±0.01) xEDA, ×102"
same,Edaravone solubility (xEDA),"PG-water, x2*=0.3, 25 °C","0.26 (±0.02) xEDA, ×102"
same,Edaravone solubility (xEDA),"PG-water, x2*=0.4, 25 °C","0.40 (±0.02) xEDA, ×102"
same,Edaravone solubility (xEDA),"PG-water, x2*=0.5, 25 °C","0.54 (±0.02) xEDA, ×102"
same,Edaravone solubility (xEDA),"PG-water, x2*=0.6, 25 °C","0.71 (±0.02) xEDA, ×102"
same,Edaravone solubility (xEDA),"PG-water, x2*=0.7, 25 °C","0.86 (±0.02) xEDA, ×102"
same,Edaravone solubility (xEDA),"PG-water, x2*=0.8, 25 °C","0.99 (±0.02) xEDA, ×102"
same,Edaravone solubility (xEDA),"PG-water, x2*=0.9, 25 °C","1.00 (±0.02) xEDA, ×102"
same,Edaravone solubility (xEDA),"TG-water, x2*=0.0 (water), 25 °C","0.02 (<±0.01) xEDA, ×102"
same,Edaravone solubility (xEDA),"TG-water, x2*=0.1, 25 °C","0.31 (±0.04) xEDA, ×102"
same,Edaravone solubility (xEDA),"TG-water, x2*=0.2, 25 °C","0.78 (±0.03) xEDA, ×102"
same,Edaravone solubility (xEDA),"TG-water, x2*=0.3, 25 °C","1.28 (±0.07) xEDA, ×102"
same,Edaravone solubility (xEDA),"TG-water, x2*=0.4, 25 °C","1.72 (±0.06) xEDA, ×102"
same,Edaravone solubility (xEDA),"TG-water, x2*=0.5, 25 °C","2.11 (±0.08) xEDA, ×102"
same,Edaravone solubility (xEDA),"TG-water, x2*=0.6, 25 °C","2.54 (±0.08) xEDA, ×102"
same,Edaravone solubility (xEDA),"TG-water, x2*=0.7, 25 °C","3.03 (±0.09) xEDA, ×102"
same,Edaravone solubility (xEDA),"TG-water, x2*=0.8, 25 °C","3.51 (±0.09) xEDA, ×102"
same,Edaravone solubility (xEDA),"TG-water, x2*=0.9, 25 °C","3.58 (±0.06) xEDA, ×102"
same,mole fraction solubility xEDA,"TG-water, x2*=0.9, 25 °C",3.58 × 10^−2 mole fraction
same,cosolvency effect in aqueous binary solvent,"diethylene glycol (DG)-water, 25 °C",no cosolvency effect was observed
same,Edaravone solubility (xEDA),"neat 1,2-propanediol (PG), x2*=1.0, 25 °C","0.85 (±0.01) xEDA, ×102"
same,Edaravone solubility (xEDA),"neat 1,3-butanediol (BG), x2*=1.0, 25 °C","1.43 (±0.04) xEDA, ×102"
same,Edaravone solubility (xEDA),"neat 2,4-dimethylphenol (DMP), 25 °C","1.88 (±0.05) xEDA, ×102"
same,Edaravone solubility (xEDA),"neat 2,4-dimethylphenol (DMP), 30 °C","2.82 (±0.58) xEDA, ×102"
same,Edaravone solubility (xEDA),"neat 2,4-dimethylphenol (DMP), 35 °C","4.08 (±0.21) xEDA, ×102"
same,Edaravone solubility (xEDA),"neat 2,4-dimethylphenol (DMP), 40 °C","5.65 (±0.25) xEDA, ×102"
same,Edaravone solubility (xEDA),"neat 4-formylmorpholine (4FM), 25 °C","1.11 (±0.01) xEDA, ×102"
same,Edaravone solubility (xEDA),"neat 4-formylmorpholine (4FM), 30 °C","1.46 (±0.08) xEDA, ×102"
same,Edaravone solubility (xEDA),"neat 4-formylmorpholine (4FM), 35 °C","1.76 (±0.19) xEDA, ×102"
same,Edaravone solubility (xEDA),"neat 4-formylmorpholine (4FM), 40 °C","2.17 (±0.01) xEDA, ×102"
same,Edaravone solubility (xEDA),"neat DMSO, 25 °C","7.58 (±0.32) xEDA, ×102"
same,Edaravone solubility (xEDA),"neat DMSO, 30 °C","12.25 (±0.16) xEDA, ×102"
same,Edaravone solubility (xEDA),"neat DMSO, 35 °C","20.1 (±0.15) xEDA, ×102"
same,Edaravone solubility (xEDA),"neat DMSO, 40 °C","29.81 (±1.14) xEDA, ×102"
same,mole fraction solubility xEDA,"neat DMSO, 40 °C",29.81 × 10^−2 mole fraction
same,Edaravone solubility (xEDA),"neat NMP, 25 °C","3.83 (±0.01) xEDA, ×102"
same,Edaravone solubility (xEDA),"neat NMP, 30 °C","4.96 (±0.49) xEDA, ×102"
same,Edaravone solubility (xEDA),"neat NMP, 35 °C","6.94 (±0.19) xEDA, ×102"
same,Edaravone solubility (xEDA),"neat NMP, 40 °C","8.61 (±0.21) xEDA, ×102"
same,mole fraction solubility xEDA,"neat TEG, 25 °C",4.63 × 10^−2 mole fraction
same,mole fraction solubility xEDA,"neat TEG, 40 °C",21.21 × 10^−2 mole fraction
same,Edaravone solubility (xEDA),"neat diethylene glycol (DG), x2*=1.0, 25 °C","2.04 (±0.06) xEDA, ×102"
same,Edaravone solubility (xEDA),"neat diglyme (DIG), 25 °C","2.05 (±0.02) xEDA, ×102"
same,Edaravone solubility (xEDA),"neat diglyme (DIG), 30 °C","2.69 (±0.04) xEDA, ×102"
same,Edaravone solubility (xEDA),"neat diglyme (DIG), 35 °C","3.33 (±0.11) xEDA, ×102"
same,Edaravone solubility (xEDA),"neat diglyme (DIG), 40 °C","4.16 (±0.06) xEDA, ×102"
same,Edaravone solubility (xEDA),"neat tetraglyme (TEG), 25 °C","4.63 (±0.05) xEDA, ×102"
same,Edaravone solubility (xEDA),"neat tetraglyme (TEG), 30 °C","8.63 (±0.22) xEDA, ×102"
same,Edaravone solubility (xEDA),"neat tetraglyme (TEG), 35 °C","13.05 (±0.19) xEDA, ×102"
same,Edaravone solubility (xEDA),"neat tetraglyme (TEG), 40 °C","21.21 (±0.64) xEDA, ×102"
same,mole fraction solubility xEDA,"neat triethylene glycol (TG), 25 °C",2.75 × 10^−2 mole fraction
same,Edaravone solubility (xEDA),"neat triethylene glycol (TG), x2*=1.0, 25 °C","2.75 (±0.08) xEDA, ×102"
same,Edaravone solubility (xEDA),"neat triglyme (TIG), 25 °C","1.53 (±0.07) xEDA, ×102"
same,Edaravone solubility (xEDA),"neat triglyme (TIG), 30 °C","2.20 (±0.04) xEDA, ×102"
same,Edaravone solubility (xEDA),"neat triglyme (TIG), 35 °C","3.11 (±0.17) xEDA, ×102"
same,Edaravone solubility (xEDA),"neat triglyme (TIG), 40 °C","4.57 (±0.39) xEDA, ×102"
